Measurements from patent US20240158370A1, “CK1 alpha AND DUAL CK1 alpha / GSPT1 DEGRADING COMPOUNDS” (Innovo Therapeutics, Inc., priority 2022, published 2024).

Columns and labels:
CK1α = target: T1, CK1α (Homo sapiens, UniProt P48729+Q96SW2); assay: HiBiT degradation assay, CK1α, Procedure A; assay type: cell-based
T1 construct: CSNK1A1-HiBit KI HEK293(LgBit) Cells; host or cells: HEK293(LgBit) knock-in cells
In short: (§1)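 DC50 and Ymin (% remaining) were derived by four-parameter fitting of luminescence data. The data come from a six-hour, 37° C compound exposure of cells in DMEM/10% FBS over a ten-point range, 10 μM to 0.005 μM, followed by Nano-Glo HiBiT lytic detection.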

GSPT1 = GSPT1 (Homo sapiens, UniProt P15170+Q96SW2); assay: HiBiT degradation assay, GSPT1, Procedure A; assay type: cell-based; set-up: HiBit-GSPT1 KI HEK293(LgBit) Cells; host or cells: HEK293(LgBit) knock-in cells
Sequence of GSPT1 (P15170 whole entry): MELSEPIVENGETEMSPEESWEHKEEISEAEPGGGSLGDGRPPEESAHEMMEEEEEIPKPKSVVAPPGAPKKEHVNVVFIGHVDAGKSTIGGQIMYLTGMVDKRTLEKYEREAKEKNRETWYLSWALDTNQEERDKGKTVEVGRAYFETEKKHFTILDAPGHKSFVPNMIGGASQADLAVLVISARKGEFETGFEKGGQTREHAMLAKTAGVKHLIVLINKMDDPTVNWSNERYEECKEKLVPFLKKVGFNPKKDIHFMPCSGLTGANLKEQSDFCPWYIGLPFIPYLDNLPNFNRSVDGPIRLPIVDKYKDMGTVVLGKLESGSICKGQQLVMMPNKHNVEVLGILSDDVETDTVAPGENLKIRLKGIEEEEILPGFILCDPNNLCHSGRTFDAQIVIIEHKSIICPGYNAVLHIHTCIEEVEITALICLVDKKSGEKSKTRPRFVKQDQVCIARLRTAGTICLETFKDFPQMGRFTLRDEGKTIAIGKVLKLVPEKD
Sequence of GSPT1 (Q96SW2 whole entry): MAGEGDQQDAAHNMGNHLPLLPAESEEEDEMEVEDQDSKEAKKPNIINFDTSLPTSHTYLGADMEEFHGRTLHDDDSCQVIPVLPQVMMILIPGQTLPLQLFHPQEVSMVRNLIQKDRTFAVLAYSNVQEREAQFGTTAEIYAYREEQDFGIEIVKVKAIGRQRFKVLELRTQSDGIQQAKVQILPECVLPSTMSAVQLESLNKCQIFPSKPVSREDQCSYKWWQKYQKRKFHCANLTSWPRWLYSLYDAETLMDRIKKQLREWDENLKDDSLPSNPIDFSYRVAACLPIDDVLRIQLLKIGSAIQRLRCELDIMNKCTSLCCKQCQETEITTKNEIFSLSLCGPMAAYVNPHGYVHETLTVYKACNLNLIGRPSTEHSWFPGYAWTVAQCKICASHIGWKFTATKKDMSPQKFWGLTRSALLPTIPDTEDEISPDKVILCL
Sequence of GSPT1 (Q16531 whole entry partner): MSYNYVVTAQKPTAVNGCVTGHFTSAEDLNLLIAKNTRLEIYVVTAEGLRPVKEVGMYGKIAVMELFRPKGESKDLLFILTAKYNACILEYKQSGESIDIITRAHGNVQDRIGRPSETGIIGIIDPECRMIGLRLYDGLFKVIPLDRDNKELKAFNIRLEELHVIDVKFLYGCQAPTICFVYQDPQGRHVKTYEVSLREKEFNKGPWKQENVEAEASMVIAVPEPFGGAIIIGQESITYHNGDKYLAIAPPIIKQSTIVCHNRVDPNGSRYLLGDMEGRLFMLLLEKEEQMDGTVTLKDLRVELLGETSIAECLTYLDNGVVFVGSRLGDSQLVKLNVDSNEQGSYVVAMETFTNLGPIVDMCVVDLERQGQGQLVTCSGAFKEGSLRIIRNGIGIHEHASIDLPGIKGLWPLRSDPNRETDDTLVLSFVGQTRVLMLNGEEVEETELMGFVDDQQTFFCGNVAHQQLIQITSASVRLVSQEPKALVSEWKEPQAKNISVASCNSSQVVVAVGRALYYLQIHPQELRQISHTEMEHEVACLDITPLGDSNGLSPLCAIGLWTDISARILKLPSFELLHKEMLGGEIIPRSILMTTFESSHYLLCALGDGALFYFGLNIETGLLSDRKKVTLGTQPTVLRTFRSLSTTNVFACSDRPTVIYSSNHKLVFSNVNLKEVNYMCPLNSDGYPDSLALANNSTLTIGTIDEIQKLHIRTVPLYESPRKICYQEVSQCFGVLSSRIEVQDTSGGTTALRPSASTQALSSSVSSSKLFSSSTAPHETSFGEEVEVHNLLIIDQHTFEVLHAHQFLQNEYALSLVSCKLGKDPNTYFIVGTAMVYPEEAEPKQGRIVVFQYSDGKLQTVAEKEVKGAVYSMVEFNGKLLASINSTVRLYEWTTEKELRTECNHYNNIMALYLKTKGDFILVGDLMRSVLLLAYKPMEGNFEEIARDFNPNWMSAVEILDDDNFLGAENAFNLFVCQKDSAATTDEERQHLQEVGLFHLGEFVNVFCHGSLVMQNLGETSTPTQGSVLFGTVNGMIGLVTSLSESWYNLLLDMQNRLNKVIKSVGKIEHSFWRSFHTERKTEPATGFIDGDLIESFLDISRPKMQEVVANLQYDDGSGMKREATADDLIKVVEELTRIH
In short: as §1

T1 sequence (P48729 whole entry): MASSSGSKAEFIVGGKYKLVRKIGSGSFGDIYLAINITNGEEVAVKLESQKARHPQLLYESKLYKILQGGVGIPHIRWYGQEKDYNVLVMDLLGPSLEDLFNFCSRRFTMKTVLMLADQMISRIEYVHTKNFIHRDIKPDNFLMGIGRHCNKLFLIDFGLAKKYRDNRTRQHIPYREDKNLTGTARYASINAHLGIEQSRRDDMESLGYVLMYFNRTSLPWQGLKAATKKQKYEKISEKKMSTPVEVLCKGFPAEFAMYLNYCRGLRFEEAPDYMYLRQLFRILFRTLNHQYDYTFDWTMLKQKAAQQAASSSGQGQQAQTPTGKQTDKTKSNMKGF
T1 sequence (Q96SW2 whole entry): as the sequence (Q96SW2 whole entry) above
T1 sequence (Q16531 whole entry partner): as the sequence (Q16531 whole entry partner) above

SMILES	CK1α Ymin (CK1α; six hours)	DC50 (CK1α; six hours)	DC50 (GSPT1; six hours)	GSPT1 Ymin (GSPT1; six hours)	CK1α Ymin (CK1α; six hours incubation)	DC50 (CK1α; six hours incubation)	DC50 (GSPT1; six hours incubation)	GSPT1 Ymin (GSPT1; six hours incubation)
Cn1ncc(-c2ccc3c(c2)CN(C2CCC(=O)NC2=O)C3=O)c1C1CCOC1 (centres unmarked) [Example 592]	E (E = >25-75% remaining)	≥ 25 nM	≥ 25 nM	F (F = >75-100% remaining)	–	–	–	–
COc1ccc(-c2nc(-c3ccc4c(c3)CN(C3CCC(=O)NC3=O)C4=O)cn2C)cc1 (centres unmarked) [Example 557]	C (C = 0-10% remaining)	< 25 nM	≥ 25 nM	F (F = >75-100% remaining)	–	–	–	–
CC(C)n1nc(-c2ccccc2)nc1-c1ccc2c(c1)CN(C1CCC(=O)NC1=O)C2=O (centres unmarked) [Example 610, 3-(5-(1-isopropyl-3-phenyl-1H-1,2,4-triazol-5-yl)-1-oxoisoindolin-2-yl)piperidine-2,6-dione]	D (D = >10- 25% remaining)	< 25 nM	≥ 25 nM	E (E = >25-75% remaining)	–	–	–	–
Cn1ccc(-c2c(-c3ccc4c(c3)CN(C3CCC(=O)NC3=O)C4=O)ncn2C)c1 (centres unmarked) [Example 521]	C (C = 0-10% remaining)	< 25 nM	< 25 nM	E (E = >25-75% remaining)	–	–	–	–
Cn1cnc(-c2ccc3c(c2)CN(C2CCC(=O)NC2=O)C3=O)c1-c1c[nH]c2ccccc12 (centres unmarked) [Example 509]	D (D = >10- 25% remaining)	< 25 nM	< 25 nM	E (E = >25-75% remaining)	–	–	–	–
Cc1ccc(-c2c(-c3ccc4c(c3)CN(C3CCC(=O)NC3=O)C4=O)ncn2C)cc1 (centres unmarked) [Example 227]	–	–	–	–	D (D = >10- 25% remaining)	< 25 nM	< 25 nM	E (E = >25-75% remaining)
Cn1cnc(-c2ccc3c(c2)CN(C2CCC(=O)NC2=O)C3=O)c1-c1ccc2c(c1)CCO2 (centres unmarked) [Example 443]	C (C = 0-10% remaining)	< 25 nM	< 25 nM	E (E = >25-75% remaining)	–	–	–	–
Cn1ncc(-c2ccc3c(c2)CN(C2CCC(=O)NC2=O)C3=O)c1-c1ccc2scnc2c1 (centres unmarked) [Example 392]	E (E = >25-75% remaining)	< 25 nM	≥ 25 nM	F (F = >75-100% remaining)	–	–	–	–
Cn1ncc(-c2ccc3c(c2)CN(C2CCC(=O)NC2=O)C3=O)c1-c1cccc(N2CCCCC2)c1 (centres unmarked) [Example 111]	–	–	–	–	F (F = >75-100% remaining)	≥ 25 nM	≥ 25 nM	F (F = >75-100% remaining)
Cn1ncc(-c2ccc3c(c2)CN(C2CCC(=O)NC2=O)C3=O)c1-c1ccc(Cl)c(Cl)c1 (centres unmarked) [Example 75]	–	–	–	–	E (E = >25-75% remaining)	≥ 25 nM	≥ 25 nM	F (F = >75-100% remaining)
Cn1cnc(-c2ccc3c(c2)CN(C2CCC(=O)NC2=O)C3=O)c1-c1cn[nH]c1 (centres unmarked) [Example 531]	C (C = 0-10% remaining)	≥ 25 nM	≥ 25 nM	E (E = >25-75% remaining)	–	–	–	–
Cn1ncc(-c2ccc3c(c2)CN(C2CCC(=O)NC2=O)C3=O)c1-c1ccccc1N (centres unmarked) [Example 127]	–	–	–	–	E (E = >25-75% remaining)	< 25 nM	≥ 25 nM	F (F = >75-100% remaining)
Cc1cc(C)cc(-c2nc(-c3ccc4c(c3)CN(C3CCC(=O)NC3=O)C4=O)cn2C)c1 (centres unmarked) [Example 576]	C (C = 0-10% remaining)	< 25 nM	< 25 nM	F (F = >75-100% remaining)	–	–	–	–
COc1ccc(-c2nc(-c3ccc4c(c3)CN(C3CCC(=O)NC3=O)C4=O)cn2C)cc1C (centres unmarked) [Example 565]	C (C = 0-10% remaining)	< 25 nM	≥ 25 nM	F (F = >75-100% remaining)	–	–	–	–
Cn1cnc(-c2ccc3c(c2)CN(C2CCC(=O)NC2=O)C3=O)c1-c1ccc(N2CCOCC2)nc1 (centres unmarked) [Example 404]	E (E = >25-75% remaining)	≥ 25 nM	≥ 25 nM	F (F = >75-100% remaining)	–	–	–	–
O=C1CCC(N2Cc3cc(-c4cnn(CC(F)F)c4-c4ccccc4)ccc3C2=O)C(=O)N1 (centres unmarked) [Example 430, 3-(5-(1-(2,2-difluoroethyl)-5-phenyl-1H-pyrazol-4-yl)-1-oxoisoindolin-2-yl)piperidine-2,6-dione]	D (D = >10- 25% remaining)	< 25 nM	≥ 25 nM	F (F = >75-100% remaining)	–	–	–	–
Cn1nc(-c2ccc3c(c2)CN(C2CCC(=O)NC2=O)C3=O)nc1C1CCOCC1 (centres unmarked) [Example 599, 3-(5-(1-methyl-5-(tetrahydro-2H-pyran-4-yl)-1H-1,2,4-triazol-3-yl)-1-oxoisoindolin-2-yl)piperidine-2,6-dione]	E (E = >25-75% remaining)	< 25 nM	≥ 25 nM	F (F = >75-100% remaining)	–	–	–	–
Cn1ncc(-c2ccc3c(c2)CN(C2CCC(=O)NC2=O)C3=O)c1-c1cccc(N)c1 (centres unmarked) [Example 147]	–	–	–	–	C (C = 0-10% remaining)	< 25 nM	≥ 25 nM	F (F = >75-100% remaining)
Cn1cnc(-c2ccc3c(c2)CN(C2CCC(=O)NC2=O)C3=O)c1-c1ccc(OCc2ccccc2)cc1 (centres unmarked) [Example 310]	–	–	–	–	D (D = >10- 25% remaining)	< 25 nM	≥ 25 nM	F (F = >75-100% remaining)
Cn1c(-c2ccc3c(c2)CN(C2CCC(=O)NC2=O)C3=O)cnc1N1CCCCC1 (centres unmarked) [Example 537, 3-(5-(1-methyl-2-(piperidin-1-yl)-1H-imidazol-5-yl)-1-oxoisoindolin-2-yl)piperidine-2,6-dione]	D (D = >10- 25% remaining)	< 25 nM	≥ 25 nM	F (F = >75-100% remaining)	–	–	–	–
COc1ccc(-c2c(-c3ccc4c(c3)CN(C3CCC(=O)NC3=O)C4=O)cnn2C)c(Cl)c1 (centres unmarked) [Example 65]	–	–	–	–	D (D = >10- 25% remaining)	< 25 nM	≥ 25 nM	F (F = >75-100% remaining)
Cn1cnc(-c2ccc3c(c2)CN(C2CCC(=O)NC2=O)C3=O)c1-c1cc(F)cc(Cl)c1 (centres unmarked) [Example 204]	–	–	–	–	E (E = >25-75% remaining)	< 25 nM	≥ 25 nM	F (F = >75-100% remaining)
Cn1cnc(-c2ccc3c(c2)CN(C2CCC(=O)NC2=O)C3=O)c1-c1cccc(C(C)(C)C)c1 (centres unmarked) [Example 266]	–	–	–	–	E (E = >25-75% remaining)	≥ 25 nM	< 25 nM	F (F = >75-100% remaining)
Cn1cnc(-c2ccc3c(c2)CN(C2CCC(=O)NC2=O)C3=O)c1-c1ccc(NC(=O)c2ccccc2)cc1 (centres unmarked) [Example 356]	–	–	–	–	F (F = >75-100% remaining)	≥ 25 nM	≥ 25 nM	F (F = >75-100% remaining)
COc1ccc(-c2c(-c3ccc4c(c3)CN(C3CCC(=O)NC3=O)C4=O)ncn2C)cc1Cl (centres unmarked) [Example 276]	–	–	–	–	C (C = 0-10% remaining)	< 25 nM	< 25 nM	F (F = >75-100% remaining)
COc1ccncc1-c1c(-c2ccc3c(c2)CN(C2CCC(=O)NC2=O)C3=O)cnn1C (centres unmarked) [Example 458]	F (F = >75-100% remaining)	< 25 nM	< 25 nM	F (F = >75-100% remaining)	–	–	–	–
Cn1ncc(-c2ccc3c(c2)CN(C2CCC(=O)NC2=O)C3=O)c1-c1cccc(C#N)n1 (centres unmarked) [Example 455]	E (E = >25-75% remaining)	≥ 25 nM	≥ 25 nM	F (F = >75-100% remaining)	–	–	–	–
CC(C)n1cc(-c2c(-c3ccc4c(c3)CN(C3CCC(=O)NC3=O)C4=O)ncn2C)cn1 (centres unmarked) [Example 330]	–	–	–	–	E (E = >25-75% remaining)	< 25 nM	≥ 25 nM	F (F = >75-100% remaining)
Cn1cnc(-c2ccc3c(c2)CN(C2CCC(=O)NC2=O)C3=O)c1-c1ccc(-n2cccn2)cc1 (centres unmarked) [Example 444]	C (C = 0-10% remaining)	< 25 nM	< 25 nM	E (E = >25-75% remaining)	–	–	–	–
